Laboratory results reported in US20220259593A1, “CONTROL OF MAMMALIAN GENE DOSAGE USING CRISPR” (The Regents of the University of California, priority 2019, published 2022).

Assays:
K562 CRISPRi cells [1] = test: Perturb-seq pooled growth measurement (sgRNA counts, growth phenotype γ, relative activity); type: cell-based, human; details: γ relative to perfectly matched sgRNA (_00) of the same gene, day 10
K562 CRISPRi cells [2] = test: as above; type: cell-based, human; details: for gamma_day5 / gamma_day10: pooled growth phenotype γ of the Perturb-seq sgRNA; for gamma_day5: day 5, K562 CRISPRi cells; for gamma_day10: day 10, K562 CRISPRi cells; for relative_activity_day5: γ relative to perfectly matched sgRNA (_00) of the same gene, day 5
Method in brief: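 sgRNA abundance was sequenced from genomic DNA of the same transduced population sampled on days two, seven and twelve. Phenotype γ compares normalized day seven and twelve counts with day two. Day-seven values (five days of growth) define relative sgRNA activity.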

## DBR1_ + _137893744.23-P1P2_01 (guide GATTGCAGGAGTCTACACCC; listed as DNA, chemistry not fully specified)
K562 CRISPRi cells [1]
  relative_activity_day10: 1.119
K562 CRISPRi cells [2]
  gamma_day5: −0.5119
  gamma_day10: −0.5474
  relative_activity_day5: 1.124

## DBR1_ + _137893744.23-P1P2_05 (guide GTTTGCAGGAGTGTACACCC; listed as DNA, chemistry not fully specified)
K562 CRISPRi cells [1]
  relative_activity_day10: 0.6323
K562 CRISPRi cells [2]
  gamma_day5: −0.3102
  gamma_day10: −0.3094
  relative_activity_day5: 0.6809

## DBR1_ + _137893744.23-P1P2_07 (guide GTTTGCAGGGGTCTACACCC; listed as DNA, chemistry not fully specified)
K562 CRISPRi cells [1]
  relative_activity_day10: 0.9563
K562 CRISPRi cells [2]
  gamma_day5: −0.5167
  gamma_day10: −0.468
  relative_activity_day5: 1.134

## DBR1_ + _137893744.23-P1P2_08 (guide GTTTGCAGTAGTCTACACCC; listed as DNA, chemistry not fully specified)
K562 CRISPRi cells [1]
  relative_activity_day10: 0.1075
K562 CRISPRi cells [2]
  gamma_day5: −0.03529
  gamma_day10: −0.05261
  relative_activity_day5: 0.07746

## DUT_ + _48624411.23-P1P2_00 (guide GCGAGCGAGGAGACCACCGG; listed as DNA, chemistry not fully specified)
K562 CRISPRi cells [1]
  relative_activity_day10: 1
K562 CRISPRi cells [2]
  gamma_day5: −0.7929
  gamma_day10: −0.6457
  relative_activity_day5: 1

## DUT_ + _48624411.23-P1P2_01 (guide GCCAGCGAGGAGACCACCGG; listed as DNA, chemistry not fully specified)
K562 CRISPRi cells [1]
  relative_activity_day10: 0.9341
K562 CRISPRi cells [2]
  gamma_day5: −0.7924
  gamma_day10: −0.6032
  relative_activity_day5: 0.9993

## DUT_ + _48624411.23-P1P2_07 (guide GCGAGCGAGGAGCCCACCGG; listed as DNA, chemistry not fully specified)
K562 CRISPRi cells [1]
  relative_activity_day10: 0.774
K562 CRISPRi cells [2]
  gamma_day5: −0.7197
  gamma_day10: −0.4998
  relative_activity_day5: 0.9077

## DUT_ + _48624411.23-P1P2_08 (guide GCGAGCGAGGAGGCCACCGG; listed as DNA, chemistry not fully specified)
K562 CRISPRi cells [1]
  relative_activity_day10: 0.9077
K562 CRISPRi cells [2]
  gamma_day5: −0.7725
  gamma_day10: −0.5862
  relative_activity_day5: 0.9742

## DUT_ + _48624411.23-P1P2_10 (guide GCGAGCGAGGAGACCAACGG; listed as DNA, chemistry not fully specified)
K562 CRISPRi cells [1]
  relative_activity_day10: 0.4949
K562 CRISPRi cells [2]
  gamma_day5: −0.3864
  gamma_day10: −0.3196
  relative_activity_day5: 0.4873

## EIF2S1_ −_67827080.23-P1P2_00 (guide GAGCGAAGCGCACGCTGAGG; listed as DNA, chemistry not fully specified)
K562 CRISPRi cells [1]
  relative_activity_day10: 1
K562 CRISPRi cells [2]
  gamma_day5: −0.9047
  gamma_day10: −0.5155
  relative_activity_day5: 1

## EIF2S1_ −_67827080.23-P1P2_01 (guide GAGCGAAACGCACGCTGAGG; listed as DNA, chemistry not fully specified)
K562 CRISPRi cells [1]
  relative_activity_day10: 0.5881
K562 CRISPRi cells [2]
  gamma_day5: −0.4467
  gamma_day10: −0.3032
  relative_activity_day5: 0.4937

## EIF2S1_ −_67827080.23-P1P2_02 (guide GAGCGCAGCGCACGCTGAGG; listed as DNA, chemistry not fully specified)
K562 CRISPRi cells [1]
  relative_activity_day10: 0.8838
K562 CRISPRi cells [2]
  gamma_day5: −0.7288
  gamma_day10: −0.4556
  relative_activity_day5: 0.8055

## EIF2S1_ −_67827080.23-P1P2_06 (guide GAGCGAAGCGCGCGCTGAGG; listed as DNA, chemistry not fully specified)
K562 CRISPRi cells [1]
  relative_activity_day10: 0.7051
K562 CRISPRi cells [2]
  gamma_day5: −0.6688
  gamma_day10: −0.3635
  relative_activity_day5: 0.7393
